Experimental data published in US5457095A, “Substituted propane-phosponous acid compounds” (Ciba-Geigy Corporation, priority 1984, dated 1995).

Legend:
GABAB receptor sites = GABAB receptor sites (Homo sapiens, UniProt Q9UBS5); experiment: affinity towards GABAB receptor sites; format: binding
rotarod mice = experiment: muscle relaxant activity, rotarod mice; format: in vivo; conditions: Mus musculus, ip, read-out: ID50-value, muscle relaxant (rotarod mice)
[1] = system: phenylquinone writhing in mice; experiment: analgesic activity, phenylquinone writhing in mice; format: in vivo; conditions: Mus musculus, po
[2] = system: audiogenic seizures in DBA/2 mice; experiment: anticonvulsant activity, audiogenic seizures in DBA/2 mice; format: in vivo; conditions: Mus musculus, ip, read-out: ID50-value, anticonvulsant (audiogenic seizures in DBA/2 mice)
lethality at high dose = format: in vivo; conditions: dose of 200 mg/kg i.p.

Sequence of GABAB receptor sites (Q9UBS5 15-961 limits assumed): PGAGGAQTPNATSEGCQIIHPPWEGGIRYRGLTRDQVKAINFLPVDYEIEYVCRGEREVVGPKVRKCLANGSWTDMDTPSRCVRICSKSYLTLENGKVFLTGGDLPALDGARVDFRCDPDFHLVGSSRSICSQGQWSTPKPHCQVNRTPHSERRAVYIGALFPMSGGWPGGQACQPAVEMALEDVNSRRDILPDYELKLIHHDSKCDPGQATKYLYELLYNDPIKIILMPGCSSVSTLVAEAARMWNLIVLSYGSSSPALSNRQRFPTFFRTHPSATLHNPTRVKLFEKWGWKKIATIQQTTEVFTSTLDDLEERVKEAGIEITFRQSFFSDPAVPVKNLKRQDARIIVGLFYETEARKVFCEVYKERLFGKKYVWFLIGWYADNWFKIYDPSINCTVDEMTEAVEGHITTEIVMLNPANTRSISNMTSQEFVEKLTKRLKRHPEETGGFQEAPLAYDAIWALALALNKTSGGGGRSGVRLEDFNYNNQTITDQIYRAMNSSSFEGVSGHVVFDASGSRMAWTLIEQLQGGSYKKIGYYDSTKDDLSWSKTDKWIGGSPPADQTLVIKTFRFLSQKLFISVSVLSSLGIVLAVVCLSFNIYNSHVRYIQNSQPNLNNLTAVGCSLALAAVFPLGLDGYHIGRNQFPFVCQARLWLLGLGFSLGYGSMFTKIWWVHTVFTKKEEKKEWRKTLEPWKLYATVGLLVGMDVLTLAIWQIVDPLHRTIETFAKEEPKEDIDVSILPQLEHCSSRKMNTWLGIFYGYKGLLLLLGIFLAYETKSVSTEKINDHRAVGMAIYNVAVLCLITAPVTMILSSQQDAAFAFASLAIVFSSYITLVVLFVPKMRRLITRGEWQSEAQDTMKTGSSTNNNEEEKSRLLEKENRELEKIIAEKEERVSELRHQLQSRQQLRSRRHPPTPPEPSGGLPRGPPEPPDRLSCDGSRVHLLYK
Sequence of GABAB receptor sites (O75899 42-941 partner): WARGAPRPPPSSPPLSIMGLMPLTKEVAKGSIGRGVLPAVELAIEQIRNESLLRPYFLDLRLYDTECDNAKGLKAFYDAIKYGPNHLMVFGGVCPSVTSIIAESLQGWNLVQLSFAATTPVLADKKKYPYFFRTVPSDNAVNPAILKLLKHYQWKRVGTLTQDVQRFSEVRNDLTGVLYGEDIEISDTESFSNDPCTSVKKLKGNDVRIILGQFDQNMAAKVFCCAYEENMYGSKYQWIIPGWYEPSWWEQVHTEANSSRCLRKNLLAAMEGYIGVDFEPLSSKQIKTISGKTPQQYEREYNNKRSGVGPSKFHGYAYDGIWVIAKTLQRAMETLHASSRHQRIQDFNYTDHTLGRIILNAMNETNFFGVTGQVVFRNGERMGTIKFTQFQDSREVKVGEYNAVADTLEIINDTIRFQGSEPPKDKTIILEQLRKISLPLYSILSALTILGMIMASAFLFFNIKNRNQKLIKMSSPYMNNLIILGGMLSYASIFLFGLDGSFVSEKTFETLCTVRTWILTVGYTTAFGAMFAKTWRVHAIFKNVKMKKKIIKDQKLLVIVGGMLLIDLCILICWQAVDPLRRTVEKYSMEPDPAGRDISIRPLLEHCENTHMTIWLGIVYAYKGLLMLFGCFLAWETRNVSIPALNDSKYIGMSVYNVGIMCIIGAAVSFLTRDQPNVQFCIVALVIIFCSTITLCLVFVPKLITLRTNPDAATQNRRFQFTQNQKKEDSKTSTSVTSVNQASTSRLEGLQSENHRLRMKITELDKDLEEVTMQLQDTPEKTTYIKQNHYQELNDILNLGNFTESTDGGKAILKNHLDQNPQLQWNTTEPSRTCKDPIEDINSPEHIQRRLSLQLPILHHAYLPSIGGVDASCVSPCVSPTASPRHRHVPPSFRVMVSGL

Row | Compound | activity relative to baclofen (times more pronounced) (GABAB receptor sites; compared with baclofen) | IC50 (GABAB receptor sites; read-out: IC50-value at the GABAB receptor site) | ED50 (rotarod mice) | ED50 [1] | ED50 [2] | deaths (lethality at high dose)
1 | NCCCP(O)O [Example 1, 3-aminopropylphosphonous acid] | at least 20 times | – | – | – | – | –
2 | NCC(CP(O)O)c1ccc(Cl)cc1 (stereo not drawn) [Example 8, 3-amino-2-(4-chlorophenyl)propylphosphonous acid] | – | 35 nM | 6 to 9 mg/kg | 4 mg/kg | 6 mg/kg | no deaths were observed
